Assay results reported in PMC6941952, “A homogeneous bioluminescent immunoassay to probe cellular signaling pathway regulation” (Communications Biology, 2020).
Values joined by “and” are separate entries in the source; they are usually repeats but may differ in a detail not shown here. Equal entries are not always repeated.

Tests used:
phospho-IκBα (Ser32) = assay: NanoBiT cell-based immunoassay, phosphorylated IκBα in human breast tumor epithelial cells; settings: for P-IkB Average: background subtracted; for P-IkB Raw data / P-IkB Subtract reagent background: listed as TNF
Procedure: (§1) All cell lines used are from ATCC. […] Human Primary Mammary Epithelial Cells (#H-6035), Human Breast Tumor Epithelial Cells (#HC-6035), Complete Human Epithelial Cell Medium (#H6621), and Gelatin-Based Coating Solution (#H6950) were purchased from Cell Biologics. The cells were cultured according to the manufacturer’s procedure. All cells were grown at 37 °C in a 5% CO2 humidified incubator and passaged before reaching 80% cell confluency. Prior to each experiment, cells were counted by combining 30 µl of cell suspension with 30 µl of trypan blue. After gentle pipetting up and down to mix the cells and the dye, the cell number was determined using Bio-Rad TC 20 cell counter.
(§2) Prior to NanoBiT Cell-Based Immunoassay, 50,000 cells were seeded in 160 µl of complete growth media per well of a 96-well plate and incubated overnight. The cells were checked under microscope and it was determined that 50,000 cells per well in 96-well plate is under 90% confluency for all cells tested. If necessary, the cell culture media were replaced with serum-free media after the cells were stably adherent on the plate and incubated overnight. To treat cells with activators or inhibitors, medium was changed to 30 µl of medium containing inhibitors. If activation of a specific pathway is needed, the cells were stimulated with 10 µl of medium containing activators. To lyse the cells, 10 µl of lysis buffer containing 0.1% digitonin diluted in 1X immunoassay buffer with protease and phosphatase inhibitors was added and the plates were mixed vigorously for 20 min. Then, 50 µl of an antibody mix containing two primary antibodies against the target protein and NanoBiT detecting antibodies (0.3 µl each per well), diluted in 1X immunoassay buffer was added to the lysates. The plates were incubated at 23 °C for 90 min, followed by the addition of 25 µl of Nano-Glo® reagent consisting of Nano-Glo® Luciferase Assay Substrate mixed with 1X immunoassay buffer. Luminescence was measured using a plate-reading luminometer.
(§3) Single dose or dose response inhibitor treatments were performed prior to activation of the pathways as follows. For IκBα, the cells were treated in 30 µl medium with IKK16 or MG132 for 60 min before the addition of 10 µl of DMEM containing appropriate concentration of TNFα. To measure phosphorylation of AKT or STAT3, the corresponding NanoBiT immunoassays were developed with MCF-7 or A431 cells, respectively, according the same scheme used to develop the IκBα assay using the primary antibodies for AKT and STAT3 described in the reagents section. For the AKT assay, MCF-7 cells were incubated overnight in phenol-red free DMEM medium (Gibco #21063-029) without serum. Treatment with LY294002 was performed in 30 µl medium and cells were incubated for 60 min before the addition of 1 µM Insulin. To measure STAT3 phosphorylation, A431 cells were incubated overnight in DMEM medium without serum. […] After addition of the stimulators, the cells were incubated for additional times as follows. IκBα phosphorylation and degradation analyses required both time courses and single time points as described in figures. […] The NanoBiT immunoassay protocol was followed as described above.
(§4) All 96-well assay plates were read using a GloMax® 96 Microplate Luminometer from Promega. The instrument was set to 0.5 s integration time. In order to obtain net change of signal, the reagent background values (signal from the well containing all reagent except primary antibodies) were subtracted from the sample values. To plot and analyze the data, Microsoft Excel and GraphPad Prism® Software were used. IC50 values were determined by using a nonlinear regression fit to a sigmoidal dose response (variable slope).

total IκBα = assay: NanoBiT cell-based immunoassay, total IκBα in human primary mammary epithelial cells; settings: for Total IkB Average: background subtracted; for Total IkB Raw data / Total IkB Subtract reagent background: listed as TNF;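 for all read-outs here: TNFα at 50 ng per ml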
Procedure: as §1, §2, §3, §4

Substance: TNFα
- P-IkB Average (phospho-IκBα (Ser32); TNF 2 min): 10421
- P-IkB Raw data (phospho-IκBα (Ser32); TNF 2 min): 19130 and 19610 and 19580
- P-IkB Subtract reagent background (phospho-IκBα (Ser32); TNF 2 min): 10591 and 10561 and 10111
- P-IkB Average (phospho-IκBα (Ser32); TNF 4 min): 13121
- P-IkB Raw data (phospho-IκBα (Ser32); TNF 4 min): 21660 and 22370 and 22390
- P-IkB Subtract reagent background (phospho-IκBα (Ser32); TNF 4 min): 13351 and 13371 and 12641
- P-IkB Average (phospho-IκBα (Ser32); TNF 6 min): 21828
- P-IkB Raw data (phospho-IκBα (Ser32); TNF 6 min): 29170 and 32480 and 30890
- P-IkB Subtract reagent background (phospho-IκBα (Ser32); TNF 6 min): 23461 and 21871 and 20151
- P-IkB Average (phospho-IκBα (Ser32); TNF 8 min): 28528
- P-IkB Raw data (phospho-IκBα (Ser32); TNF 8 min): 35450 and 39050 and 38140
- P-IkB Subtract reagent background (phospho-IκBα (Ser32); TNF 8 min): 30031 and 29121 and 26431
- P-IkB Average (phospho-IκBα (Ser32); TNF 10 min): 34158
- P-IkB Raw data (phospho-IκBα (Ser32); TNF 10 min): 41810 and 44090 and 43630
- P-IkB Subtract reagent background (phospho-IκBα (Ser32); TNF 10 min): 35071 and 34611 and 32791
- P-IkB Average (phospho-IκBα (Ser32); TNF 12 min): 36728
- P-IkB Raw data (phospho-IκBα (Ser32); TNF 12 min): 43840 and 47190 and 46210
- P-IkB Subtract reagent background (phospho-IκBα (Ser32); TNF 12 min): 38171 and 37191 and 34821
- P-IkB Average (phospho-IκBα (Ser32); TNF 15 min): 37461
- P-IkB Raw data (phospho-IκBα (Ser32); TNF 15 min): 43590 and 48210 and 47640
- P-IkB Subtract reagent background (phospho-IκBα (Ser32); TNF 15 min): 39191 and 38621 and 34571
- P-IkB Average (phospho-IκBα (Ser32); TNF 30 min): 32864
- P-IkB Raw data (phospho-IκBα (Ser32); TNF 30 min): 39720 and 43050 and 42880
- P-IkB Subtract reagent background (phospho-IκBα (Ser32); TNF 30 min): 34031 and 33861 and 30701
- P-IkB Average (phospho-IκBα (Ser32); TNF 45 min): 30164
- P-IkB Raw data (phospho-IκBα (Ser32); TNF 45 min): 36730 and 40420 and 40400
- P-IkB Subtract reagent background (phospho-IκBα (Ser32); TNF 45 min): 31401 and 31381 and 27711
- P-IkB Average (phospho-IκBα (Ser32); TNF 60 min): 35274
- P-IkB Raw data (phospho-IκBα (Ser32); TNF 60 min): 41100 and 46170 and 45610
- P-IkB Subtract reagent background (phospho-IκBα (Ser32); TNF 60 min): 37151 and 36591 and 32081
- Total IkB Average (total IκBα; TNF 2 min): 18292
- Total IkB Raw data (total IκBα; TNF 2 min): 29190 and 27950 and 27350
- Total IkB Subtract reagent background (total IκBα; TNF 2 min): 19319 and 18079 and 17479
- Total IkB Average (total IκBα; TNF 4 min): 16139
- Total IkB Raw data (total IκBα; TNF 4 min): 26330 and 26760 and 24940
- Total IkB Subtract reagent background (total IκBα; TNF 4 min): 16459 and 16889 and 15069
- Total IkB Average (total IκBα; TNF 6 min): 13185
- Total IkB Raw data (total IκBα; TNF 6 min): 23190 and 23370 and 22610
- Total IkB Subtract reagent background (total IκBα; TNF 6 min): 13319 and 13499 and 12739
- Total IkB Average (total IκBα; TNF 8 min): 9145
- Total IkB Raw data (total IκBα; TNF 8 min): 19430 and 18940 and 18680
- Total IkB Subtract reagent background (total IκBα; TNF 8 min): 9559 and 9069 and 8809
- Total IkB Average (total IκBα; TNF 10 min): 6539
- Total IkB Raw data (total IκBα; TNF 10 min): 16860 and 16350 and 16020
- Total IkB Subtract reagent background (total IκBα; TNF 10 min): 6989 and 6479 and 6149
- Total IkB Average (total IκBα; TNF 12 min): 4795
- Total IkB Raw data (total IκBα; TNF 12 min): 14910 and 14630 and 14460
- Total IkB Subtract reagent background (total IκBα; TNF 12 min): 5039 and 4759 and 4589
- Total IkB Average (total IκBα; TNF 15 min): 3099
- Total IkB Raw data (total IκBα; TNF 15 min): 13120 and 12980 and 12810
- Total IkB Subtract reagent background (total IκBα; TNF 15 min): 3249 and 3109 and 2939
- Total IkB Average (total IκBα; TNF 30 min): 3035
- Total IkB Raw data (total IκBα; TNF 30 min): 13030 and 12940 and 12750
- Total IkB Subtract reagent background (total IκBα; TNF 30 min): 3159 and 3069 and 2879
- Total IkB Average (total IκBα; TNF 45 min): 5225
- Total IkB Raw data (total IκBα; TNF 45 min): 15670 and 15120 and 14500
- Total IkB Subtract reagent background (total IκBα; TNF 45 min): 5799 and 5249 and 4629
- Total IkB Average (total IκBα; TNF 60 min): 7062
- Total IkB Raw data (total IκBα; TNF 60 min): 16790 and 17170 and 16840
- Total IkB Subtract reagent background (total IκBα; TNF 60 min): 6919 and 7299 and 6969
